The nature of the assay: Sensory analysis of the umami enhancing thresholds in Model Broth by a panel of trained experts. The class given is in vivo. As to conditions: Model Broth (MSG, maltodextrin, sodium chloride, yeast extract in water); half-tongue test vs blank broth; geometric mean over panelists; read-out: Umami enhancement threshold concentration in "Model Broth" as calculated for the panel. The protocol:
Sensory analysis of the umami enhancing thresholds of the compounds isolated from the ACN fraction of heated avocado pulp as described in example 1.
Water for sensory evaluation was commercially available table water (“Evian®”, Danone, Wiesbaden, Germany).
“Model Broth” contained monosodium L-glutamate monohydrate (MSG) (1.9 g), maltodextrin (6.375 g), sodium chloride (2.9 g) and yeast extract (2.1 g), in 1000 mL of water.
25 mg of each of the compounds listed hereinabove were separately dissolved in 0.2 mL ethanol, then 20.0 mL of model broth was added to each sample. Each sample was then diluted with model broth in 1:1(v/v) steps, until sets of nine solutions with dilution factors of 1, 2, 4, 8, 16, 32, 64, 128, and […] were obtained for each compound.
The samples were evaluated by a panel of trained experts.
The following sensorial evaluation procedure was followed for each set of samples containing a different compound of formula (I).
In a way that avoided any mixing, 1 mL of one of the sample solutions was applied to the left part of each panelists tongue, and 1 mL of Model Broth as a blank value/neutral reference was applied to the right part of the tongue. The panelists were asked to compare the taste on both halves of their tongues. After 5 to 30 seconds the panelists were then asked to rub their tongues against the roof of their mouths. Panelists were then asked if they could distinguish the sample from the blank (Model Broth).
After each sample, the oral cavity was rinsed with water and a break of 5 to 10 minutes was observed until the stimulus completely disappeared.
Multiple sample solutions were tested in this way, one after the other in ascending order of concentration, to determine the weakest concentration at which the compounds of formula (I) enhanced the umami taste of the model broth.
The calculation of the umami enhancement threshold was then performed as described in the literature (ASU: L 00.90-9, 1999), via the geometric mean.
By “umami enhancement threshold” is meant, the mean concentration at which a compound enhances the umami taste of a model broth.
For each panelist, the following formula was used to determine the mean umami enhancement threshold:
E=√{square root over (ce×ce−1)}
wherein ce is the concentration (in ppm) of the weakest concentration identified as having an umami enhancing effect, Ce−1 is the concentration (in ppm) of the anteceding sample solution and E is the mean umami enhancement threshold.
To calculate the mean umami enhancement threshold for the panel, the following formula was used: […]
Wherein n is the number of panelists, Ei is the product of the umami enhancement thresholds calculated for each panelist as specified above.
The panel calculated mean umami enhancement threshold for each compound is indicated in table1 below.

Take `CCCCCC=CCC=CCCCCCCCC(O)CC(O)COC(C)=O` (centres unmarked) [1-acetoxy-2,4-dihydroxy-n-heneicosa-12,15-dien]: the minimal effective concentration is 0.7 µg/mL.
In the case of `C=CCCCCCCCCCCCC(O)CC(O)COC(C)=O` (centres unmarked) [1-acetoxy-2,4-dihydroxy-n-heptadeca-16-en] it was 2.8 µg/mL; in that of `C#CCCCCCCCCCCCC(O)CC(O)COC(C)=O` (centres unmarked) [1-acetoxy-2,4-dihydroxy-n-heptadeca-16-yne], 1.5 µg/mL; in that of `C=CCCCCCCCCCCCC(=O)CC(O)COC(C)=O` (centres unmarked) [1-acetoxy-2-hydroxy-4-keto-n-heptadeca-16-en], 3.5 µg/mL.
In the case of `CCCCCCCCCCCCCC(=O)CC(O)COC(C)=O` (centres unmarked) [1-acetoxy-2-hydroxy-4-keto-n-heptadecane] it was 5.6 µg/mL; in that of `CCCCCC=CCCCCCCCC(=O)CC(O)COC(C)=O` (centres unmarked) [1-acetoxy-2-hydroxy-4-keto-n-octadeca-12-en], 1.8 µg/mL; in that of `CCCCCC=CCC=CCCCCCC=CC(=O)CC(O)COC(C)=O` (centres unmarked) [1-acetoxy-2-hydroxy-4-oxo-n-heneicosa-5,12,15-trien], 0.7 µg/mL.
`CCCCCC=CCC=CCCCCCCCC(=O)CC(O)COC(C)=O` (centres unmarked) [1-acetoxy-2-hydroxy-4-oxo-n-heneicosa-12,15-dien]: the minimal effective concentration is 3.2 µg/mL.

The record behind these values is US20120231140A1, “Organic Compounds” (GIVAUDAN SA, priority 2009, published 2012).
